Read-outs that look alike come from different tables or passages of the source.
Assays:
[1] = for effect of the component on H2O2 in CAP-stimulated PBS during storage: at 8° C. (FIG. 3a) (so in the source); for effect of the appearance of the component in DMEM on H2O2 during storage: 3 days of storage at −25° C., FIG. 5d; for effect of the presence of the component in DMEM on H202 in PSM during storage: three days of storage at 8° C., FIG. 3b
Description: The general research strategy described herein is illustrated in FIG. 1b. I mL of PSM was made by the vertical irradiation on the medium in a well on a 12-well plate. Then, the PSM was transferred to a 1.5 mL centrifuge tube by pipette. The centrifuge tubes were stored in refrigerators with different internal temperatures (8° C. and −25° C.) for 3 days. Additionally, some centrifuge tubes were stored at 22° C., for the investigation of PSM degradation at room temperature. Ultimately, the PSM was either transferred to culture the seeded cancer cells in a 96-well plate or transferred into a black wall 96-well plate to measure for H2O2 concentration. Because PBS is not suitable for cell culture, the protocols used to transfer the CAP-stimulated PBS are slightly different from those used to transfer the CAP-stimulated DMEM.
The protocols to prepare PSM are the same among different experiments. 1 mL of PBS or DMEM (or modified DMEM, such as cysteine/methionine-free DMEM) in a well on a Coming™ Falcon™ 12-well plate was treated by CAP for 1 or 2 minutes. The gap between the end of dielectric plasma tube and the bottom of 12-well plate was 3 cm.
H2O2 containing PBS and H2O2 containing DMEM were prepared by adding 30 wt¾ H2O2 solution to PBS and DMEM, respectively.
The amino acid(s) containing PBS, calcium containing PBS, magnesium containing PBS, glucose containing PBS, phenol red containing PBS, and amino acid(s) containing DMEM were prepared by adding and dissolving specific amino acid(s), calcium chloride solution, magnesium chloride solution, D-glucose, phenol red solution or an amino acid derivative (such as 3-nitro-L-tyrosine) in PBS and DMEM, respectively. With the exception of PBS and DMEM, the added components were purchased from Sigma Aldrich.
50 μL of CAP-stimulated medium or PBS to be analyzed for H2O2 concentration was transferred to a well on a black-wall Coming™ Falcon™ 96-well clear bottom plate in triplicate. Subsequently, according to standard protocols provided by Sigma Aldrich (St. Louis, MO), the H2O2 concentration in the cold plasma-stimulated medium was measured as follows. First, 50 μL of red peroxidase substrate stock solution, 200 μL of peroxidase stock solution, and 4.75 ml of assay buffer were mixed to prepare H2O2 probe solution. 50 μL of probe solution was then added in the black 96-well plate and mixed with 50 μL of the CAP-stimulated medium or PBS. After 30 min of storage at the room temperature, with protecting from light, a Hybrid Technology HI microplate reader (BioTek Instruments, Winooski, VT) was used to measure the fluorescence with an excitation wavelength at 540 nm and an emission wavelength at 590 nm. The final measured fluorescent strength of the experimental group was obtained by deducting the measured fluorescence of the control group from the measured fluorescence of the experimental group. The standard H202 solution was used to prepare the standard H202 concentration-fluorescence curve. Based on this standard curve, we obtained the H202 concentration in CAP-stimulated medium or PBS. The triplicate experiments were independently repeated for three times

[2] = test system: MDA-MB-231 cells; experiment: MTT cell viability of breast cancer cells cultured in CAP-stimulated media; type: cell-based, human; details: CAP treatment time 2 minutes, storage at −25° C. for 3 days, FIG. 5e
Description: All DMEM and PBS were mixed with 1% (v/v) antibiotic (penicillin and streptomycin) (Thermo Fisher Scientific) before any experiments were performed. […] All cancer cell lines were seeded with a confluence of 3×10^4 cells/mL and a volume of 100 μL in each well on a 96-well plate and were cultured for 6 hours in a complete media composed of Dulbecco's modified Eagle's medium supplemented with 10% (v/v) fetal bovine serum (Thermo Fisher Scientific). and 1% (v/v) antibiotic (penicillin and streptomycin) solution under standard cell culture conditions (a humidified, 37° C., 5% CO2 environment). In each experiment, 6 wells in a single column on the 96-well plate were seeded with cancer cells.
First, the initial culture medium which had been cultured cells for 6 hours was removed before this step. […] In each experiment, 6 wells in a single column on the 96-well plate were seeded with cancer cells. […]
The cancer cells in the 96-well plates were cultured in the 96-well plate under standard cell culture conditions (a humidified, 37° C., 5% CO2 environment) for 3 days. […] The 96-well plate filled with hydrochloric acid containing isopropanol solution was then read by a Hybrid Technology HI microplate reader (BioTek Instruments, Winooski, VT) at a 570 nm of absorbance. […] The average value of measured cell viability from 6 wells was regarded as the cell viability measured from one independent experiment. […]

SMILES | effect of the component on H202 degradation in CAP-stimulated PBS-based solution [1] | effect of the component on H2O2 in CAP-stimulated PBS during storage [1] | effect of the component on H2O2 degradation in CAP-stimulated PBS during freezing storage [1] | effect of the appearance of the component in DMEM on H2O2 during storage [1] | effect of the presence of the component in DMEM on H202 in PSM during storage [1] | effect of the appearance of the component in DMEM on the anti-cancer capacity of PSM [2] | effect of the component on H2O2 degradation in CAP-stimulated PBS during freezing storage ([1]; storage at −25° C., FIG. 5c)
N[C@@H](Cc1ccccc1)C(=O)O [phenylalanine] | noticeable degradation | noticeable H2O2 degradation | – | – | – | – | –
N[C@@H](Cc1c[nH]c2ccccc12)C(=O)O [tryptophan] | – | inhibit the degradation | aggravate the degradation | – | – | – | –
CSCC[C@H](N)C(=O)O [methionine] | most significant degradation | – | two most reactive components | complete consumption of H2O2 | noticeable H202 degradation | significantly aggravates the degradation | –
N[C@@H](Cc1ccc(O)cc1)C(=O)O [tyrosine] | – | – | aggravate the degradation | – | – | – | –
NCCCC[C@H](N)C(=O)O [lysine] | – | inhibit the degradation | – | – | – | – | aggravate the degradation
N[C@@H](CS)C(=O)O [cysteine] | most significant degradation | – | two most reactive components | complete consumption of H2O2 | noticeable H202 degradation | significantly aggravates the degradation | –

From patent US12605541B2, “Stabilized anti-cancer cold atmospheric plasma (CAP)-stimulated media and methods for preparing and using same” (The George Washington University, priority 2015, dated 2026)
